Source: paper PMC12677607, “Identification of a Pair of Linear or Cyclic Naturally Inspired Bifunctional Lipopeptide Antibiotics That Overcome Antimicrobial Resistance” (Advanced Science, 2025)
≈ marks a conversion by molar mass, not a printed value. Bridge positions count the residues as written; N and C are the ends. Square brackets hold non-standard residues; d marks the D form. Peptide text beside a SMILES is read from it. * marks the point of attachment. Myristoyl = CCCCCCCCCCCCCC(=O)*; Orn = NCCC[C@H](N)C(=O)O; Dab = NCC[C@H](N)C(=O)O; Dap = NC[C@H](N)C(=O)O

Columns and labels:
[1] = system: Acinetobacter baumannii 1104008; assay: microbe, parasite or virus in culture; format: cell-based; conditions: for MIC (μg/mL) A. baumannii 1104008: 1104008, 16 h
Protocol: (§1) All MIC assays were performed two independent times (n = 2) in 96‐well plates using a broth micro‐dilution method. The lowest concentration of that inhibited visible microbial growth was recorded as the MIC value.
(§2) For most of bacterial strains, overnight cultures were diluted 5000‐fold in LB broth. For E. faecium and S. aureus, overnight cultures were diluted 1000‐ and 10000‐fold in LB broth, respectively. 100 µL of diluted cells was mixed with 100 µL of LB broth containing each peptide ranging from 64 to 0.125 µg mL^−1 at 2‐fold serial dilutions.

[2] = system: Klebsiella pneumoniae CRKP 5452; assay: microbe, parasite or virus in culture; format: cell-based; conditions: for MIC (μg/mL) K. pneumoniae CRKP 5452: CRKP 5452, 16 h
Protocol: as §1, §2

[3] = system: Staphylococcus aureus USA300; assay: microbe, parasite or virus in culture; format: cell-based; conditions: for MIC (μg/mL) S. aureus USA300: USA300, 16 h
Protocol: as §1, §2

[4] = system: Streptococcus pyogenes ATCC 19615; assay: microbe, parasite or virus in culture; format: cell-based; conditions: for MIC (μg/mL) S. pyogenes ATCC 19615: ATCC 19615, 16 h
Protocol: as §1, §2

[5] = system: Candida albicans ATCC 10231; assay: MIC assay (YPD broth); format: cell-based; conditions: for MIC (μg/mL) C. albicans ATCC 10231: ATCC 10231, 16 h
Protocol: as §1
(§3) For fungal strains, overnight cultures were diluted 2000‐fold in YPD broth. 100 µL of diluted cells was mixed with 100 µL of YPD broth containing each peptide ranging from […] 64 to 0.125 µg mL^−1 at 2‐fold serial dilutions.

HeLa cells = assay: Cytotoxicity assay (CCK-8); format: cell-based, human; conditions: 48 h
Protocol: The cytotoxicity of each synAQU peptide was assessed using a cell counting kit‐8 (CCK‐8) assay. HeLa cells were first seeded in a 96‐well flat‐bottom microtiter plate with a density of ∼5000 cells per well and incubated in the DMEM medium supplemented with 10% FBS at 37 °C with 5% CO2 for 24 h. […] All cytotoxicity experiments were done in triplicate (n = 3) and repeated two independent times (n = 2).

[6] = system: four Gram-negative bacteria, four Gram-positive bacteria, and one fungal pathogen; assay: Initial antimicrobial assay of 17 synAQUs; format: cell-based; conditions: MIC up to 64 µg mL^−1, Figure 3a
Protocol: as §1, §2, §3

Escherichia coli DH5α = assay: MIC assay (broth micro-dilution); format: cell-based; conditions: Table S11; LB broth, 37 °C, 16 h, n = 2
Protocol: as §1, §2

Shigella Castellani LXX = assay: MIC assay (broth micro-dilution); format: cell-based; conditions: Table S11; LB broth, 37 °C, 16 h, n = 2
Protocol: as §1, §2

[7] = system: Acinetobacter baumannii ATCC 17978; assay: microbe, parasite or virus in culture; format: cell-based; conditions: ATCC 17978, 16 h
Protocol: as §1, §2

[8] = system: Acinetobacter baumannii ATCC 19606; assay: microbe, parasite or virus in culture; format: cell-based; conditions: ATCC 19606, 16 h
Protocol: as §1, §2

[9] = system: Acinetobacter baumannii P53; assay: microbe, parasite or virus in culture; format: cell-based; conditions: Table S11; LB broth, 37 °C, 16 h, n = 2
Protocol: as §1, §2

Enterococcus faecalis 26 = assay: microbe, parasite or virus in culture; format: cell-based; conditions: 26, 16 h
Protocol: as §1, §2

Enterococcus faecalis 28 = assay: microbe, parasite or virus in culture; format: cell-based; conditions: 28, 16 h
Protocol: as §1, §2

[10] = system: Enterococcus faecalis ATCC 29212; assay: microbe, parasite or virus in culture; format: cell-based; conditions: ATCC 29212, 16 h
Protocol: as §1, §2

[11] = system: Enterococcus faecium 35682; assay: microbe, parasite or virus in culture; format: cell-based; conditions: Table S11; LB broth, 37 °C, 16 h, n = 2
Protocol: as §1, §2

[12] = system: Klebsiella pneumoniae ATCC 13883; assay: microbe, parasite or virus in culture; format: cell-based; conditions: ATCC 13883, 16 h
Protocol: as §1, §2

[13] = system: Klebsiella pneumoniae CRKP HS11286; assay: microbe, parasite or virus in culture; format: cell-based; conditions: CRKP HS11286, 16 h
Protocol: as §1, §2

[14] = system: Klebsiella pneumoniae NCTC 5056; assay: microbe, parasite or virus in culture; format: cell-based; conditions: NCTC 5056, 16 h
Protocol: as §1, §2

[15] = system: Pseudomonas aeruginosa ATCC 9027; assay: microbe, parasite or virus in culture; format: cell-based; conditions: ATCC 9027, 16 h
Protocol: as §1, §2

[16] = system: Pseudomonas aeruginosa PAO1; assay: microbe, parasite or virus in culture; format: cell-based; conditions: Table S11; LB broth, 37 °C, 16 h, n = 2
Protocol: as §1, §2

[17] = system: Salmonella enterica ATCC 14028; assay: microbe, parasite or virus in culture; format: cell-based; conditions: ATCC 14028, 16 h
Protocol: as §1, §2

[18] = system: Salmonella typhimurium LXX; assay: microbe, parasite or virus in culture; format: cell-based; conditions: murium LXX, 16 h
Protocol: as §1, §2

[19] = system: Staphylococcus aureus ATCC 25923; assay: microbe, parasite or virus in culture; format: cell-based; conditions: ATCC 25923, 16 h
Protocol: as §1, §2

[20] = system: Staphylococcus aureus ATCC 6538; assay: microbe, parasite or virus in culture; format: cell-based; conditions: ATCC 6538, 16 h
Protocol: as §1, §2

[21] = system: Staphylococcus aureus Newman; assay: microbe, parasite or virus in culture; format: cell-based; conditions: Newman, 16 h
Protocol: as §1, §2

[22] = system: Streptococcus mutans ATCC 25175; assay: microbe, parasite or virus in culture; format: cell-based; conditions: ATCC 25175, 16 h
Protocol: as §1, §2

[23] = system: Vibrio alginolyticus XSBZ14; assay: microbe, parasite or virus in culture; format: cell-based; conditions: 16 h
Protocol: as §1, §2

[24] = system: Candida albicans ATCC 64550; format: cell-based; conditions: ATCC 64550, 16 h
Protocol: as §1, §3

[25] = Table S11, LB broth, 37 °C, 16 h, n = 2

CCCCCCCCCCCCCC(=O)N[C@H](C)C(=O)N[C@H](C)C(=O)N[C@H](Cc1ccccc1)C(=O)N[C@H](C(=O)N[C@@H](CCCNC(=N)N)C(=O)O)[C@@H](C)O [synAQU1-L] (Myristoyl-[dA][dA][dF]TR-OH)
MIC (μg/mL) A. baumannii 1104008 [1]: > 64 µg/mL
MIC (μg/mL) K. pneumoniae CRKP 5452 [2]: > 64 µg/mL
MIC (μg/mL) S. aureus USA300 [3]: > 64 µg/mL
MIC (μg/mL) S. pyogenes ATCC 19615 [4]: > 64 µg/mL
MIC (μg/mL) C. albicans ATCC 10231 [5]: > 64 µg/mL
MIC (μg/mL) Hela (HeLa cells): > 64 µg/mL
activity against all nine tested strains [6]: not active

CCCCCCCCCCCCCC(=O)N[C@@H](Cc1ccccc1)C(=O)N[C@@H](CCCN)C(=O)N[C@H]1CCCNC(=O)CNC(=O)[C@H](CCN)NC(=O)[C@@H](Cc2ccc(O)cc2)NC(=O)[C@H](CC(C)C)NC(=O)[C@H]([C@@H](C)CC)NC(=O)[C@@H](C(C)C)NC1=O [synAQU2-C3] (Myristoyl-F[Orn][Orn][dV]IL[dY][Dab]G; lactam 3-C)
MIC Escherichia coli DH5α (Escherichia coli DH5α): > 64 µg/mL
MIC Shigella Castellani LXX (Shigella Castellani LXX): > 64 µg/mL
MIC Acinetobacter baumannii 1104008 [1, 25]: 8 µg/mL (≈ 6.5 µM)
MIC Acinetobacter baumannii ATCC 17978 [7]: 4 µg/mL (≈ 3.25 µM)
MIC Acinetobacter baumannii ATCC 19606 [8]: > 64 µg/mL
MIC Acinetobacter baumannii P53 [9]: 8 µg/mL (≈ 6.5 µM)
MIC Enterococcus faecalis 26 (Enterococcus faecalis 26): 8 µg/mL (≈ 6.5 µM)
MIC Enterococcus faecalis 28 (Enterococcus faecalis 28): > 64 µg/mL
MIC Enterococcus faecalis ATCC 29212 [10]: 32 µg/mL (≈ 26 µM)
MIC Enterococcus faecium 35682 [11]: 8 µg/mL (≈ 6.5 µM)
MIC Klebsiella pneumoniae ATCC 13883 [12]: > 64 µg/mL
MIC Klebsiella pneumoniae CRKP 5452 [2, 25]: > 64 µg/mL
MIC Klebsiella pneumoniae CRKP HS11286 [13]: > 64 µg/mL
MIC Klebsiella pneumoniae NCTC 5056 [14]: 32 µg/mL (≈ 26 µM)
MIC Pseudomonas aeruginosa ATCC 9027 [15]: > 64 µg/mL
MIC Pseudomonas aeruginosa PAO1 [16]: 32 µg/mL (≈ 26 µM)
MIC Salmonella enterica ATCC 14028 [17]: > 64 µg/mL
MIC Salmonella typhimurium LXX [18]: > 64 µg/mL
MIC Staphylococcus aureus ATCC 25923 [19]: 16 µg/mL (≈ 13 µM)
MIC Staphylococcus aureus ATCC 6538 [20]: 16 µg/mL (≈ 13 µM)
MIC Staphylococcus aureus Newman [21]: > 64 µg/mL
MIC Staphylococcus aureus USA300 [3, 25]: > 64 µg/mL
MIC Streptococcus mutans ATCC 25175 [22]: 8 µg/mL (≈ 6.5 µM)
MIC Streptococcus pyogenes ATCC 19615 [4, 25]: 2 µg/mL (≈ 1.62 µM)
MIC Vibrio alginolyticus XSBZ14 [23]: 16 µg/mL (≈ 13 µM)
MIC Candida albicans ATCC 10231 ([5]; Table S11, YPD broth, 30 °C, 16 h, n = 2): > 64 µg/mL
MIC Candida albicans ATCC 64550 [24]: > 64 µg/mL

CCCCCCCCCCCCCC(=O)N[C@@H](CN)C(=O)N[C@@H]1C(=O)N[C@@H](CC(C)C)C(=O)N[C@@H](CO)C(=O)N[C@@H](CCN)C(=O)N[C@@H](CN)C(=O)N[C@@H](Cc2ccccc2)C(=O)N[C@@H]([C@@H](C)CC)C(=O)N[C@@H](CCCN)C(=O)N[C@@H](CC(N)=O)C(=O)N[C@@H](Cc2ccccc2)C(=O)O[C@@H]1C [synAQU5-C2] (Myristoyl-[Dap]TLS[Dab][Dap]FI[Orn]NF; ester 2-C)
MIC (μg/mL) A. baumannii 1104008 [1]: > 64 µg/mL
MIC (μg/mL) K. pneumoniae CRKP 5452 [2]: > 64 µg/mL
MIC (μg/mL) S. aureus USA300 [3]: > 64 µg/mL
MIC (μg/mL) S. pyogenes ATCC 19615 [4]: > 64 µg/mL
MIC (μg/mL) C. albicans ATCC 10231 [5]: > 64 µg/mL
MIC (μg/mL) Hela (HeLa cells): > 64 µg/mL
activity against all nine tested strains [6]: not active
